Experimental data as given in US20080299592A1, “Red-Shifted Luciferase” (priority 2007, published 2008).
“Also recorded” adds a separate entry of the source.

Legend:
tetracysteine tag = conditions: FlAsH / tetracysteine tag; Adams et al. 2002; read-out: dissociation constant; cited from earlier work
[1] = test system: tetracysteine-tagged protein; test: Binding/labeling of tetracysteine-tagged protein by bis-arsenical dyes (MALDI-MS); conditions: for binding to tetracysteine-tagged protein: MALDI-MS, canonical tetracysteine tag
HeLa cells = test: Intracellular staining of mammalian tissue culture cells (HeLa) with bis-arsenical dyes; format: cell-based; conditions: absence of tetracysteine-tagged proteins and thiol competitors
mice = conditions: cited from earlier work
[2] = test system: tetracysteine-tagged firefly luciferase; test: BRET from tetracysteine-tagged firefly luciferase constructs to ReAsH; format: biochemical; conditions: for BRET: to ReAsH, purified TC-tagged luciferase constructs, Table 1; for efficiency of BRET (apparent): treatment with ReAsH
From the text: Firefly luciferase fusion proteins with an optimized tetracysteine (TC) tag ([…]; SEQ ID NO:1) (Martin et al., Nature Biotechnology, 2005, 23:1308-14) fused onto either the amino (TCLuc1) or carboxy (TCLuc2) terminus of the luciferase protein (Promega's pGL3 (GenBank No. U47295.2)) were cloned and expressed (see list in Table 1). The proteins were expressed in E. Coli as GST fusions, purified by glutathione agarose affinity chromatography, and eluted as the TC-tagged protein by cleavage with PreScission™ protease.
The emission spectrum is sharpened, such that the maximum at 608 nm is actually higher than the 560 nm peak of luciferase (FIG. 3).
To help evaluate the role of distance and orientation on the BRET efficiency, additional N-terminal fusions of the TC tag were constructed (Table 1). […] The best-performing TCLuc1 fusion was cloned into pcDNA3.1 for expression in mammalian tissue culture cells. This construct lacks a C-terminal peroxisomal targeting sequence, and thus the expressed luciferase will localize to the cytoplasm.

| BRET [2] | efficiency of BRET (apparent) [2] | Molecule | binding to tetracysteine-tagged protein [1] | intracellular staining (HeLa cells) | further results |
| --- | --- | --- | --- | --- | --- |
| – | – | FlAsH [reference compound] | binding | bright intracellular staining | Kd (tetracysteine tag): ~4 pM |
| – | – | Nc1ccc([As](=O)(O)O)cc1 [arsanilic acid] | – | – | LD50 (mice; mice): 248 mg/kg |
| – | – | bis-arsenical oxazine 170 [As2Ox170] | fails to bind; also recorded: lack of binding | intracellular staining; also recorded: highly fluorescent within cells | fluorescent labeling of tetracysteine-tagged proteins [1]: fails to fluorescently label |
| – | – | O=c1ccc2nc3ccc(O)c([As]4SCCS4)c3oc-2c1[As]1SCCS1 [ReAsH, reference compound] | binding | bright intracellular staining | – |
| – | – | CN(Cc1cnc2nc(N)nc(N)c2n1)c1ccc(C(=O)N[C@@H](CCC(=O)O)C(=O)O)cc1 [methotrexate] | – | – | LD50 relative to melarsonyl (mice; mouse, in vivo): two-fold lower LD50 than melarsonyl |
| ~50% | about 50% | TCLuc3: N-terminal TC-tagged luciferase with flexible (Gly-Ser)3 repeat spacer, SEQ ID NO:4 (protein) GPLGSFLNCCPGCCMEPGSGSGSGSMEDAKNIKKGPAPFYPLEDGTAGEQLHKAMKRYALVPGTIAFTDAHIEVDITYAEYFEMSVRLAEAMKRYGLNTNHRIVVCSENSLQFFMPVLGALFIGVAVAPANDIYNERELLNSMGISQPTVVFVSKKGLQKILNVQKKLPIIQKIIIMDSKTDYQGFQSMYTFVTSHLPPGFNEYDFVPESFDRDKTIALIMNSSGSTGLPKGVALPHRTACVRFSHARDPIFGNQIIPDTAILSVVPFHHGFGMFTTLGYLICGFRVVLMYRFEEELFLRSLQDYKIQSALLVPTLFSFFAKSTLIDKYDLSNLHEIASGGAPLSKEVGEAVAKRFHLPGIRQGYGLTETTSAILITPEGDDKPGAVGKVVPFFEAKVVDLDTGKTLGVNQRGELCVRGPMIMSGYVNNPEATNALIDKDGWLHSGDIAYWDEDEHFFIVDRLKSLIKYKGYQVAPAELESILLQHPNIFDAGVAGLPDDDAGELPAAVVVLEHGKTMTEKEIVDYVASQVTTAKKLRGGVVFVDEVPKGLTGKLDARKIREILIKAKKGGKIAV | – | – | – |
| ~50% | about 50% | TCLuc2: Firefly luciferase with optimized tetracysteine tag fused at the carboxy terminus, SEQ ID NO:3 (protein) GPLGSMEDAKNIKKGPAPFYPLEDGTAGEQLHKAMKRYALVPGTIAFTDAHIEVDITYAEYFEMSVRLAEAMKRYGLNTNHRIVVCSENSLQFFMPVLGALFIGVAVAPANDIYNERELLNSMGISQPTVVFVSKKGLQKILNVQKKLPIIQKIIIMDSKTDYQGFQSMYTFVTSHLPPGFNEYDFVPESFDRDKTIALIMNSSGSTGLPKGVALPHRTACVRFSHARDPIFGNQIIPDTAILSVVPFHHGFGMFTTLGYLICGFRVVLMYRFEEELFLRSLQDYKIQSALLVPTLFSFFAKSTLIDKYDLSNLHEIASGGAPLSKEVGEAVAKRFHLPGIRQGYGLTETTSAILITPEGDDKPGAVGKVVPFFEAKVVDLDTGKTLGVNQRGELCVRGPMIMSGYVNNPEATNALIDKDGWLHSGDIAYWDEDEHFFIVDRLKSLIKYKGYQVAPAELESILLQHPNIFDAGVAGLPDDDAGELPAAVVVLEHGKTMTEKEIVDYVASQVTTAKKLRGGVVFVDEVPKGLTGKLDARKIREILIKAKKGGKIAVFLNCCPGCCMEP | – | – | – |
| quenches | quenching of luciferase emission | TCLuc4: N-terminal TC-tagged luciferase with truncated amino acids between tag and luciferase, SEQ ID NO:5 (protein) GPLGSFLNCCPGCCMEDAKNIKKGPAPFYPLEDGTAGEQLHKAMKRYALVPGTIAFTDAHIEVDITYAEYFEMSVRLAEAMKRYGLNTNHRIVVCSENSLQFFMPVLGALFIGVAVAPANDIYNERELLNSMGISQPTVVFVSKKGLQKILNVQKKLPIIQKIIIMDSKTDYQGFQSMYTFVTSHLPPGFNEYDFVPESFDRDKTIALIMNSSGSTGLPKGVALPHRTACVRFSHARDPIFGNQIIPDTAILSVVPFHHGFGMFTTLGYLICGFRVVLMYRFEEELFLRSLQDYKIQSALLVPTLFSFFAKSTLIDKYDLSNLHEIASGGAPLSKEVGEAVAKRFHLPGIRQGYGLTETTSAILITPEGDDKPGAVGKVVPFFEAKVVDLDTGKTLGVNQRGELCVRGPMIMSGYVNNPEATNALIDKDGWLHSGDIAYWDEDEHFFIVDRLKSLIKYKGYQVAPAELESILLQHPNIFDAGVAGLPDDDAGELPAAVVVLEHGKTMTEKEIVDYVASQVTTAKKLRGGVVFVDEVPKGLTGKLDARKIREILIKAKKGGKIAV | – | – | – |
| ~80% | about 80% | TCLuc1: Firefly luciferase with optimized tetracysteine tag fused at the amino terminus, SEQ ID NO:2 (protein) GPLGSFLNCCPGCCMEPGSMEDAKNIKKGPAPFYPLEDGTAGEQLHKAMKRYALVPGTIAFTDAHIEVDITYAEYFEMSVRLAEAMKRYGLNTNHRIVVCSENSLQFFMPVLGALFIGVAVAPANDIYNERELLNSMGISQPTVVFVSKKGLQKILNVQKKLPIIQKIIIMDSKTDYQGFQSMYTFVTSHLPPGFNEYDFVPESFDRDKTIALIMNSSGSTGLPKGVALPHRTACVRFSHARDPIFGNQIIPDTAILSVVPFHHGFGMFTTLGYLICGFRVVLMYRFEEELFLRSLQDYKIQSALLVPTLFSFFAKSTLIDKYDLSNLHEIASGGAPLSKEVGEAVAKRFHLPGIRQGYGLTETTSAILITPEGDDKPGAVGKVVPFFEAKVVDLDTGKTLGVNQRGELCVRGPMIMSGYVNNPEATNALIDKDGWLHSGDIAYWDEDEHFFIVDRLKSLIKYKGYQVAPAELESILLQHPNIFDAGVAGLPDDDAGELPAAVVVLEHGKTMTEKEIVDYVASQVTTAKKLRGGVVFVDEVPKGLTGKLDARKIREILIKAKKGGKIAV | – | – | – |
| inactive | complete loss of luciferase activity | TCLuc5: N-terminal TC-tagged Δ2-luciferase, truncated, SEQ ID NO:6 (protein) GPLGSFLNCCPGCCDAKNIKKGPAPFYPLEDGTAGEQLHKAMKRYALVPGTIAFTDAHIEVDITYAEYFEMSVRLAEAMKRYGLNTNHRIVVCSENSLQFFMPVLGALFIGVAVAPANDIYNERELLNSMGISQPTVVFVSKKGLQKILNVQKKLPIIQKIIIMDSKTDYQGFQSMYTFVTSHLPPGFNEYDFVPESFDRDKTIALIMNSSGSTGLPKGVALPHRTACVRFSHARDPIFGNQIIPDTAILSVVPFHHGFGMFTTLGYLICGFRVVLMYRFEEELFLRSLQDYKIQSALLVPTLFSFFAKSTLIDKYDLSNLHEIASGGAPLSKEVGEAVAKRFHLPGIRQGYGLTETTSAILITPEGDDKPGAVGKVVPFFEAKVVDLDTGKTLGVNQRGELCVRGPMIMSGYVNNPEATNALIDKDGWLHSGDIAYWDEDEHFFIVDRLKSLIKYKGYQVAPAELESILLQHPNIFDAGVAGLPDDDAGELPAAVVVLEHGKTMTEKEIVDYVASQVTTAKKLRGGVVFVDEVPKGLTGKLDARKIREILIKAKKGGKIAV | – | – | – |
